Experimental data reported in patent EP0942896B1, “SUBSTITUTED PHENOLS AND THIOPHENOLS USEFUL AS ANTIOXIDANT AGENTS” (Aventis Pharmaceuticals Inc., priority 1996, dated 1998).
Like-named read-outs stand apart in the source and are kept apart here.

What was measured:
[1] = system: oxidation of serum lipids; experiment: TBARS assay on serum of treated rats (CuSO4-initiated oxidation); type: in vivo, Male Sprague-Dawley rats; conditions: % of control; thiobarbituric acid reactive substances as nmoles MDA, rat serum; diet 0.3%, 4 days; N = 5
Text: (§1) A typical experiment consists of 4-6 groups of rats (N = 5 per group) with I group being a control which receives no MDL compound and the other groups being treated with 0.3% MDL compound. Some of the compounds are either repeated at 0.3% or evaluated again at the lower dose of 0.1%. House Male Sprague-Dawley rats, 50-100 g, (Harlan Laboratories, Indianapolis, IN) in groups of 5, feeding ad libitum water and Purina Rodent chow (#5002) with or without MDL compound as a dietary admixture for 4 days. Make dietary admixtures (0.3%) by mixing 1.2 grams of an MDL compound with 400 grams of Purina rodent chow (#5002). Mix the MDL compound with approximately 50 grams of food using a mortar and pestle. This is added to the remainder of the food and mixed for 3 hours on a rotary mixer. In the morning of day 5, anesthetize non-fasted rats with carbon dioxide, and collect blood by cardiac puncture. Sacrifice rats by cervical dislocation. Record body weights and liver weights in grams. Record food consumption as grams • day^-1 • rat^-1. Deaths are recorded as mortality. Use aliquots of fresh serum for clinical chemistries, thiobarbituric acid reactive substances (TBARS) and conjugated diene measurements. Freeze aliquots of serum (∼ 0.5mL) and whole livers at -20°C for compound and metabolite concentration determination at a later time.
In this assay the oxidation of serum lipids is initiated with CuSO4, resulting in the formation of aldehydes, such as malondialdehyde (MDA). Upon incubation with thiobarbituric acid, the absorbance of the aldehydes can be detected at 530-540 nm. As stated in the previous example, TBARS values which are lower than control serum values indicate the relative ability of a test compound to inhibit the oxidation of lipids in a sample. Measure TBARS as follows: mix 100µL of serum with 400µL of a 5mmol CuSO4 solution and incubate at 37°C for 3 hr. Stop the reactions by addition of 1.0mL of 20% trichloroacetic acid. Then add 1.0mL of 0.67% thiobarbituric acid in 0.05 N sodium hydroxide, mix, and incubate the samples for 30 min at 90°C. Centrifuge samples briefly to pellet undissolved material, and transfer the supernatants to a 96-well microtiter plate. Measure absorbances at 540 nm using a Biotek model EL311 microplate reader. The nmoles of MDA produced are calculated from a standard curve of 0 to 10 nmoles of MDA prepared from malonaldehyde bis(dimethylacetal). Serum samples from treated rats are compared to serum samples from control rats that received no MDL compound.

[2] = Animal parameters (food, body weight, liver weight/body weight, mortality) in rats; type: in vivo; conditions: 4 days; for food / lw/bw / body wt.: % of control, diet 0.3%, N = 5; for food: grams eaten per day per rat; for lw/bw: liver weight/body weight; for lw/bw / body wt. / mortality: rat; for body wt.: weight in grams; for mortality: male, Sprague-Dawley, in vivo
Text: as §1

[3] = HPLC quantitation of compound and metabolite concentration in rat serum and liver; type: in vivo; conditions: male, Sprague-Dawley, oral, 0.3 % in chow, diet 0.3%, 4 days, mean N = 5
Text: as §1
Determine serum and liver concentrations of parent compound and the metabolites, bisphenol and diphenoquinone, by reverse phase HPLC using a Waters 990 Powerline system. Homegenize livers (1 gram samples) with 5.0mL PBS, pH 7.4, using a Polytron tissue homogenizer at setting 5 for 20-30 seconds. Extract serum or liver homogenates as follows: add 100µL of either serum or homogenate to 2.0mL diethyl ether: ethanol (3:1) while vortexing the tube. Cap the sample tubes and centrifuge for 10 min at 5°C at 3500 rpm in a Beckman GPKR centrifuge with a GH 3.7 rotor. Transfer the supernatants to clean tubes and dry under N2. Reconstitute samples with 200µL of acetonitrile : hexane : 0.1 M ammonium acetate (90: 6.5 : 3.5, by vol.). Then, inject 100µL onto a Waters Deltapak C18-300 Å column, and elute with an 83% acetonitrile : 17% water mobile phase at a flow rate of 1.5mL/min. Record absorbances at the wavelengths of 240, 254, and 420nm. Calculate compound concentrations from known quantities of authentic parent compounds after correction for recovery. […]. Calculate concentrations as µg/mL of serum and µg/g of liver.

ICAM-1 = experiment: Inhibition of cytokine-induced ICAM-1 expression in human aortic smooth muscle cells (cell ELISA); type: cell-based; conditions: HASMC, tumor necrosis factor-alpha stimulated, average of two runs, numbers in parentheses represent negative values, read-out: ICAM-1 (% inh. 50 µM)
Protocol: Plate proliferating human umbilical vein endothelial cells (HUVEC) or human aortic smooth muscle cells (HASMC) from Clonetics (San Diego, CA) onto 96-well plates in 100 µL medium per well at 20,000 cells per cm^2. Maintain the cultures in growth medium (EGM or SMGM2, Clonetics, San Diego, CA) for two days prior to addition of cytokines or drugs. Add cytokines plus or minus compounds for 20 to 24 hours prior to analysis for adhesion molecule levels. Add tumor necrosis factor (Genzyme, Cambridge, MA) to cultures at 500-1000 units/mL to stimulate ICAM-1 expression. Add interleukin-4 (GIBCO-BRL, Gaithersburg, MD) to cultures at 100-200 pg/mL to stimulate VCAM-1 expression. […] Remove the culture medium, and wash the monolayers twice with Hanks buffered saline solution (HBSS) at room temperature. Add the primary antibody (anti-human VCAM-1 from Upstate Biotechnology, Inc., Lake Placid, NY or anti-human ICAM-1 from Immunotech, Inc., Westbrook, ME) to each well (1 µg/mL in HBSS plus 5% newborn calf serum, GIBCO-BRL, Gaithersburg, MD) and incubate at 37°C for 1 hr. Wash the wells twice with HBSS, then add 100 µL of a 1/1000 dilution of goat anti-mouse IgG conjugated to horse radish peroxidase (BioRad, Hercules, CA) in HBSS plus 5% newborn calf serum to each well and incubated for 1 hr at 37°C. Wash the wells three times with HBSS, then add 100 µL of TMB substrate (BioRad, Hercules, CA) to each well. Stop the reaction after blue color develops by addition of 50 µL of IN H2SO4. Measure absorbance at 450 nm with a plate reader.
Table 1 summarizes the ability of selected compounds of this invention to inhibit VCAM-1 and ICAM-1 using human aortic smooth muscle cells (HASMC). In these experiments, the cells were coincubated with interleukin-4 to stimulate VCAM-1 expression and with tumor necrosis factor-alpha to stimulate ICAM-1 expression.

[4] = parent compound concentration in rat liver, read-out: Liver Parent
[5] = parent compound concentration in rat serum, read-out: Serum Parent

SMILES	TBARS [1] [%]	food [2] [%]	lw/bw [2] [%]	body wt. [2] [%]	mortality [2] [%]	concentration at 5 day [3, 4] [ng/g]	concentration at 5 day [3, 5] [ng/mL]	inhibition at 50 µM (ICAM-1) [%]
CC(C)=CCC[C@H](C)CCOc1cc(C(C)(C)C)c(O)c(C(C)(C)C)c1 [MDL 103,294, Phenol, 2,6-bis(1,1-dimethylethyl)-4-[(3,7-dimethyl-6-octenyl)oxy]-, (S)-]	18	108	129	101	0	64600	21700	–
CC(C)=CCCC(C)CCSc1cc(C(C)(C)C)c(O)c(C(C)(C)C)c1 (stereo not shown) [MDL 103,960, Phenol, 2,6-bis(1,1-dimethylethyl)-4-[(3,7-dimethyl-6-octenyl)thio]-]	24	105	130	100	0	47300	8700	0
CC(C)CCCC(C)CCOc1ccc(O)c(C(C)(C)C)c1 (stereo not shown) [MDL 104,191, Phenol, 2-(1,1-dimethylethyl)-4-[(3,7-dimethyloctyl)oxy]-]	20	76	126	92	0	16100	6900	22
CC(C)=CCC[C@@H](C)CCOc1cc(C(C)(C)C)c(O)c(C(C)(C)C)c1 [MDL 104,535, Phenol, 2,6-bis(1,1-dimethylethyl)-4-[(3,7-dimethyl-6-octenyl)oxy]-,(R)-]	11	95	119	102	0	60300	16300	10
